Broadly, the IC50 is the concentration at which inhibition is half-maximal.

Sequence of PERK recombinant enzyme (cytoplasmic domain corresponding to residues 540-1115) (Q9NZJ5 540-1115): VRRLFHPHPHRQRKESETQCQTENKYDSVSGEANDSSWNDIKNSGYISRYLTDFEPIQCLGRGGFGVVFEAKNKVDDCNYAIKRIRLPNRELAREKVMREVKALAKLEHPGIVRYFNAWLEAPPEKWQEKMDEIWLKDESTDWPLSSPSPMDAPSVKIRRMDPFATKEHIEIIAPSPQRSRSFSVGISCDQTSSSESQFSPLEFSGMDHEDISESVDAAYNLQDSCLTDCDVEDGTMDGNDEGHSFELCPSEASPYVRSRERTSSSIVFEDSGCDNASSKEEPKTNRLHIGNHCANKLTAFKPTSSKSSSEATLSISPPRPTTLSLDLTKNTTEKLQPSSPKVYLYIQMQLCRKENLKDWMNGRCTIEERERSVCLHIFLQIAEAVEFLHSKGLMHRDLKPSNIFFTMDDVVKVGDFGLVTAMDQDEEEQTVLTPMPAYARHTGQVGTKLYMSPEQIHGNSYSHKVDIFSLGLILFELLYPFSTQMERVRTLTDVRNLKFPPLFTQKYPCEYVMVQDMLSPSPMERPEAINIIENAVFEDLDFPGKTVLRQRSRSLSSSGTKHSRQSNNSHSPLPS

For the assay, the target named is PERK recombinant enzyme (cytoplasmic domain corresponding to residues 540-1115) (Homo sapiens (Human), UniProt Q9NZJ5). In words: PERK enzyme assay, Method 1: ADP-Glo Kinase Assay (quantification of ADP formed). The following applies: 52 microM ATP, 8 nM PERK, 300 microM eIF2alpha peptide substrate, 60 minutes at room temperature. It counts as biochemical. How it is done: The biochemical activity of compounds was determined by incubation with PERK recombinant enzyme (cytoplasmic domain corresponding to residues 540-1115) and elF2alpha peptide substrate (Aminoacid sequence: LLSELSRRRIRSINK—SEQ ID Nr: 1; purchased from American Peptide Company, product #341923). This was followed by:
Method 1: Quantification of the ADP Tormed from the Kinase Reaction by ADP-Glo™ Kinase Assay (Promega Cat. 9102). Utra Pure ATP was Included into ADP-Glo™ Kinase Assay kit.
Compounds were 3-fold serially diluted in order to obtain from 3.333 to 0.000169 microM final concentration, then incubated for 60 minutes at room temperature in the presence of ATP, substrate and enzyme in a final volume of 15 microL of kinase buffer in 384-well plates (Perkin Elmer cat. #6007290).
The final concentration of the different reagents is 52 microM ATP, 8 nM PERK, 300 microM substrate, 50 mM Hepes pH 7.5, 3 mM MgCl2, 1 mM DTT, 3 microM Na3VO4, 0.2 mg/ml BSA, 1% DMSO.
After 60 minutes, an equal volume (15 microL) of ADP-Glo™ Reagent was added to each well to terminate the kinase reaction and deplete the remaining ATP. After 40 minutes, 30 microL of Kinase Detection Reagent is added, which simultaneously converts ADP to ATP and allows the newly synthesized ATP to be measured using a coupled luciferase/luciferin reaction. After further 40 minutes luminescence was read by ViewLux Instrument (Perkin Elmer). The data are analyzed by GraphPad Prism software which provides sigmoidal fittings of the curves for IC50 determination using a 4 parameter logistic equation: y=bottom+(top−bottom)/(1+10^((log IC50−x)*slope))
where x is the logarithm of the inhibitor concentration, y is the response; y starts at bottom and goes to top with a sigmoid shape.
Turning to `COc1c(C)cc(S(=O)(=O)Nc2cccc(-c3cn(C)c4ncnc(N)c34)c2F)cc1C` [cmpd 29, N-[3-(4-Amino-7-methyl-7H-pyrrolo[2,3-d]pyrimidin-5-yl)-2-fluoro-phenyl]-4-methoxy-3,5-dimethyl-benzenesulfonamide], the concentration for half-maximal inhibition (IC50) was 15.8 to 50.1 nM.

With `COc1ccc(S(=O)(=O)Nc2cccc(-c3cn(C4CCN(C(C)C)CC4)c4ncnc(N)c34)c2F)cc1C` [cmpd 40, N-{3-[4-Amino-7-(1-isopropyl-piperidin-4-yl)-7H-pyrrolo[2,3-d]pyrimidin-5-yl]-2-fluoro-phenyl}-4-methoxy-3-methyl-benzenesulfonamide], the half-inhibitory concentration (IC50) was 15.8 to 50.1 nM. For `Cn1cc(-c2cccc(NS(=O)(=O)c3ccc(O)c(Cl)c3)c2F)c2c(N)ncnc21` [cmpd 67, N-[3-(4-Amino-7-methyl-7H-pyrrolo[2,3-d]pyrimidin-5-yl)-2-fluoro-phenyl]-3-chloro-4-hydroxy-benzenesulfonamide], the pIC50 result is given as “C (pIC50 < 6.8)”.

Turning to `COc1cc(F)c(S(=O)(=O)Nc2cccc(-c3cn(C)c4ncnc(N)c34)c2F)cc1C` [cmpd 44, N-[3-(4-Amino-7-methyl-7H-pyrrolo[2,3-d]pyrimidin-5-yl)-2-fluoro-phenyl]-2-fluoro-4-methoxy-5-methyl-benzenesulfonamide], the pIC50 result was “AA (7.8 ≤ pIC50)”. Consider `COc1cc(F)c(S(=O)(=O)Nc2cccc(-c3cn(C4CCOCC4)c4ncnc(N)c34)c2F)cc1Cl` [cmpd 76, N-{3-[4-Amino-7-(tetrahydro-pyran-4-yl)-7H-pyrrolo[2,3-d]pyrimidin-5-yl]-2-fluoro-phenyl}-5-chloro-2-fluoro-4-methoxy-benzenesulfonamide], for which the concentration for half-maximal inhibition (IC50) was 50.1 to 158 nM.

For the compound `COc1ccc(S(=O)(=O)Nc2cccc(-c3nn(C)c4ncnc(N)c34)c2F)cc1Cl` [cmpd 35, N-[3-(4-Amino-1-methyl-1H-pyrazolo[3,4-d]pyrimidin-3-yl)-2-fluoro-phenyl]-3-chloro-4-methoxy-benzenesulfonamide], the pIC50 result is reported as “AA (7.8 ≤ pIC50)”. As to `COc1ccc(S(=O)(=O)Nc2cccc(-c3cn(C4CCN(C5CC5)CC4)c4ncnc(N)c34)c2F)cc1Cl` [cmpd 5, N-{3-[4-Amino-7-(1-cyclopropyl-piperidin-4-yl)-7H-pyrrolo[2,3-d]pyrimidin-5-yl]-2-fluoro-phenyl}-3-chloro-4-methoxy-benzenesulfonamide], the IC50 is 15.8 to 50.1 nM. On to `Cn1cc(-c2cccc(NS(=O)(=O)c3cnc(Cl)c(Br)c3)c2F)c2c(N)ncnc21` [cmpd 33, 5-Bromo-6-chloro-pyridine-3-sulfonic acid [3-(4-amino-7-methyl-7H-pyrrolo[2,3-d]pyrimidin-5-yl)-2-fluoro-phenyl]-amide], for which the IC50 was 15.8 to 50.1 nM. Same read-out and setting: as for `Cn1cc(-c2cccc(NS(=O)(=O)c3cc(F)c(F)c(F)c3)c2F)c2c(N)ncnc21` [cmpd 32, N-[3-(4-Amino-7-methyl-7H-pyrrolo[2,3-d]pyrimidin-5-yl)-2-fluoro-phenyl]-3,4,5-trifluoro-benzenesulfonamide], the figure is 15.8 to 50.1 nM; as for `COc1ccc(S(=O)(=O)Nc2cccc(-c3cn(C)c4ncnc(N)c34)c2F)cc1OC` [cmpd 17, N-[3-(4-Amino-7-methyl-7H-pyrrolo[2,3-d]pyrimidin-5-yl)-2-fluoro-phenyl]-3,4-dimethm-benzenesulfonamide], 50.1 to 158 nM.

As to `COc1ccc(S(=O)(=O)Nc2cccc(-c3cn(C)c4ncnc(N)c34)c2F)cc1Br` [cmpd 87, N-[3-(4-Amino-7-methyl-7H-pyrrolo[2,3-d]pyrimidin-5-yl)-2-fluoro-phenyl]-3-bromo-4-methoxy-benzenesulfonamide], the pIC50 entry was “AA (7.8 ≤ pIC50)”. With `COc1ccc(S(=O)(=O)Nc2cccc(-c3cn(C4CCN(C)CC4)c4ncnc(N)c34)c2F)cc1Cl` [cmpd 4, N-{3-[4-Amino-7-(1-methyl-piperidin-4-yl)-7H-pyrrolo[2,3-d]pyrimidin-5-yl]-2-fluoro-phenyl}-3-chloro-4-methoxy-benzenesulfonamide], the pIC50 entry is recorded as “AA (7.8 ≤ pIC50)”.

On to `COc1ccc(S(=O)(=O)Nc2cccc(-c3cn(C)c4ncnc(N)c34)c2F)cc1Cl` [cmpd 1, N-[3-(4-Amino-7-methyl-7H-pyrrolo[2,3-d]pyrimidin-5-yl)-2-fluoro-phenyl]-3-chloro-4-methoxy-benzenesulfonamide], for which the pIC50 entry was “A (7.3 ≤ pIC50 < 7.8)”. As for `CCOc1ccc(S(=O)(=O)Nc2cccc(-c3cn(C)c4ncnc(N)c34)c2F)cc1C` [cmpd 28, N-[3-(4-Amino-7-methyl-7H-pyrrolo[2,3-d]pyrimidin-5-yl)-2-fluoro-phenyl]-4-ethoxy-3-methyl-benzenesulfonamide], the IC50 was 15.8 to 50.1 nM. Regarding `COc1ccc(S(=O)(=O)Nc2cccc(-c3cn(C4CCN(C)CC4)c4ncnc(N)c34)c2F)cc1C` [cmpd 38, N-{3-[4-Amino-7-(1-methyl-piperidin-4-yl)-7H-pyrrolo[2,3-d]pyrimidin-5-yl]-2-fluoro-phenyl}-4-methoxy-3-methyl-benzenesulfonamide], the pIC50 entry is recorded as “AA (7.8 ≤ pIC50)”. Consider `Cn1cc(-c2cccc(NS(=O)(=O)c3ccc([N+](=O)[O-])cc3)c2F)c2c(N)ncnc21` [cmpd 19, N-[3-(4-Amino-7-methyl-7H-pyrrolo[2,3-d]pyrimidin-5-yl)-2-fluoro-phenyl]-4-nitro-benzenesulfonamide], for which the IC50 was 15.8 to 50.1 nM. On the same count and under the same terms, as for `CCn1cc(-c2cccc(NS(=O)(=O)c3cc(Cl)c(OC)cc3F)c2F)c2c(N)ncnc21` [cmpd 75, N-[3-(4-Amino-7-ethyl-7H-pyrrolo[2,3-d]pyrimidin-5-yl)-2-fluoro-phenyl]-5-chloro-2-fluoro-4-methoxy-benzenesulfonamide], the figure is 15.8 to 50.1 nM; as for `Cn1cc(-c2cccc(NS(=O)(=O)c3ccc(Br)c(C(F)(F)F)c3)c2F)c2c(N)ncnc21` [cmpd 51, N-[3-(4-Amino-7-methyl-7H-pyrrolo[2,3-d]pyrimidin-5-yl)-2-fluoro-phenyl]-4-bromo-3-trifluoromethyl-benzenesulfonamide], 15.8 to 50.1 nM. As to `Cn1cc(-c2cccc(NS(=O)(=O)c3ccc4ccccc4c3)c2F)c2c(N)ncnc21` [cmpd 20, Naphthalene-2-sulfonic acid [3-(4-amino-7-methyl-7H-pyrrolo[2,3-d]pyrimidin-5-yl)-2-fluoro-phenyl]-amide], the pIC50 result is recorded as “C (pIC50 < 6.8)”.

As to `Cn1cc(-c2cccc(NS(=O)(=O)c3cc(F)c(Br)cc3F)c2F)c2c(N)ncnc21` [cmpd 46, N-[3-(4-Amino-7-methyl-7H-pyrrolo[2,3-d]pyrimidin-5-yl)-2-fluoro-phenyl]-4-bromo-2,5-difluoro-benzenesulfonamide], the pIC50 entry was “AA (7.8 ≤ pIC50)”. `COc1cc(F)c(S(=O)(=O)Nc2cccc(-c3cn(C(C)C)c4ncnc(N)c34)c2F)cc1Cl` [cmpd 74, N-[3-(4-Amino-7-isopropyl-7H-pyrrolo[2,3-d]pyrimidin-5-yl)-2-fluoro-phenyl]-5-chloro-2-fluoro-4-methoxy-benzenesulfonamide]: the IC50 was 50.1 to 158 nM. On to `Cn1cc(-c2cccc(NS(=O)(=O)c3cc(F)ccc3F)c2F)c2c(N)ncnc21` [cmpd 21, N-[3-(4-Amino-7-methyl-7H-pyrrolo[2,3-d]pyrimidin-5-yl)-2-fluoro-phenyl]-2,5-difluoro-benzenesulfonamide], for which the pIC50 entry is reported as “C (pIC50 < 6.8)”.

`COc1cc(F)c(S(=O)(=O)Nc2cccc(-c3csc4ccnc(N)c34)c2F)cc1Cl` [cmpd 59, N-[3-(4-Amino-thieno[3,2-c]pyridin-3-yl)-2-fluoro-phenyl]-5-chloro-2-fluoro-4-methoxy-benzenesulfonamide]: the half-maximal inhibitory concentration (IC50) is 50.1 to 158 nM.

In the case of `Cn1cc(-c2cccc(NS(=O)(=O)c3ccc4c(c3)CCO4)c2F)c2c(N)ncnc21` [cmpd 27, 2,3-Dihydro-benzofuran-5-sulfonic acid [3-(4-amino-7-methyl-7H-pyrrolo[2,3-d]pyrimidin-5-yl)-2-fluoro-phenyl]-amide], the pIC50 result was “AA (7.8 ≤ pIC50)”. In the case of `Cn1cc(-c2cccc(NS(=O)(=O)c3ccc(Br)s3)c2F)c2c(N)ncnc21` [cmpd 48, 5-Bromo-thiophene-2-sulfonic acid [3-(4-amino-7-methyl-7H-pyrrolo[2,3-d]pyrimidin-5-yl)-2-fluoro-phenyl]-amide], the 50% inhibitory concentration (IC50) is 15.8 to 50.1 nM. In the case of `Cn1cc(-c2cccc(NS(=O)(=O)c3ccc(OC(F)(F)F)c(Cl)c3)c2F)c2c(N)ncnc21` [cmpd 50, N-[3-(4-Amino-7-methyl-7H-pyrrolo[2,3-d]pyrimidin-5-yl)-2-fluoro-phenyl]-3-chloro-4-trifluoromethoxy-benzenesulfonamide], the pIC50 result is “C (pIC50 < 6.8)”.

The values are drawn from patent US10918642B2, “N-(substituted-phenyl)-sulfonamide derivatives as kinase inhibitors” (Nerviano Medical Sciences S.R.L., priority 2016, dated 2021).
